The text below walks through data of patent publication US20240115594A1, “DINUCLEOTIDES AND THEIR USE IN TREATING CANCER” (MAIA Biotechnology, Inc., priority 2022, published 2024).

Holding throughout (assay type): cell-based
For one test, the system named is HEK293. Put plainly: IC50 determination / cytotoxicity in human cell lines (HEK293). The conditions noted are these: HEK293 (Kidney), 96 h; for IC50: 10.000 cells per well, 96 well plates, read-out: IC50 [μM] relative to untreated cells. Here is the method:
(§1) Anticancer activity of the dinucleotides, (formulated and administered in PBS solutions), was evaluated in vitro in various cancer cell lines, according to a commonly used procedures for assessment of compounds cytotoxicity, as out lined in the following publications: Mender, I., Gryaznov, S., Dikmen, Z. G., Wright, W. E., & Shay, J. W. (2015). Induction of telomere dysfunction mediated by the telomerase substrate precursor 6-thio-2′-deoxyguanosine. Cancer Discovery, 5, 82-95; Mender et al., (2020). Telomere Stress Potentiates STING-Dependent Anti-tumor Immunity. Cancer Cell, 38, 400-411.

The test system of the next test is Hep3B. The experiment in a line: IC50 determination / cytotoxicity in human cell lines (Hep3B). The settings on record: Hep3B (liver; childhood HCC), 96 h; for % max. toxicity @ 50 μM2: 50 μM; for IC50: 10.000 cells per well, read-out: IC50 [μM] relative to untreated cells. On the procedure: as §1
The test system of the next test is HepG2. The experiment in a line: IC50 determination / cytotoxicity in human cell lines (HepG2). The settings on record: HepG2 (liver; hepatoblastoma), 96 h; for % max. toxicity @ 50 μM3: 50 μM; for IC50: 10.000 cells per well, read-out: IC50 [μM] relative to untreated cells. On the procedure: as §1
The next test deals with NCI-H23. The experiment in a line: IC50 determination / cytotoxicity in human cell lines (NCI-H23). The conditions noted are these: NCI-H23 (lung; adenocarcinoma), 96 h; for % max. toxicity @ 50 μM4: 50 μM; for IC50: 10.000 cells per well, read-out: IC50 [μM] relative to untreated cells. On the procedure: as §1
The subject of another test is Panc-1. The experiment in a line: IC50 determination / cytotoxicity in human cell lines (Panc-1). The settings on record: 96 h; for % max. toxicity @ 50 μM5: 50 μM; for IC50: 10.000 cells per well, read-out: IC50 [μM] relative to untreated cells. On the procedure: as §1

Usually IC50 stands for the point on the concentration scale where inhibition reaches its midpoint.

For the compound `Nc1nc2c(ncn2[C@H]2C[C@@H](OP(=O)(O)OC[C@H]3O[C@@H](n4cc(F)c(=O)[nH]c4=O)C[C@H]3O)[C@@H](CO)O2)c(=S)[nH]1` [Compound 5], in the test with HEK293, the “% max. toxicity @ 50 μM” value was determined as 94% and the 50% inhibitory concentration (IC50) was 0.02 µM. For the same compound, in the test with Hep3B, the “% max. toxicity @ 50 μM2” value amounted to 87% and the IC50 came out at 0.09 µM. In addition, in the test on HepG2, the “% max. toxicity @ 50 μM3” value worked out at 92% and the concentration for half-maximal inhibition (IC50) was 0.04 µM. In the test on NCI-H23, the “% max. toxicity @ 50 μM4” value came out at 94% and the half-maximal inhibitory concentration (IC50) is 0.01 µM. Moreover, in the test with Panc-1, the “% max. toxicity @ 50 μM5” value stood at 96% and the concentration for half-maximal inhibition (IC50) is 0.25 µM.

In the case of `Nc1nc2c(ncn2[C@H]2C[C@@H](O)[C@@H](COP(O)(=S)O[C@@H]3C[C@H](n4cc(F)c(=O)[nH]c4=O)O[C@@H]3CO)O2)c(=S)[nH]1` (some centres unmarked) [Compound-12], in the test on HEK293, the “% max. toxicity @ 50 μM” value was 86% and the IC50 stood at 0.61 µM. In addition, in the test with Hep3B, the “% max. toxicity @ 50 μM2” value came to 59% and the half-maximal inhibitory concentration (IC50) turned out to be 3.68 µM. In addition, in the test with HepG2, the “% max. toxicity @ 50 μM3” value is recorded as 49% and the IC50 was found to be 1.15 µM. In addition, in the test on NCI-H23, the “% max. toxicity @ 50 μM4” value is 81% and the half-inhibitory concentration (IC50) was determined as 2.55 µM. In addition, in the test on Panc-1, the “% max. toxicity @ 50 μM5” value was 48% and the 50% inhibitory concentration (IC50) was above 50 µM.

`Nc1nc2c(ncn2[C@H]2C[C@@H](O)[C@@H](COP(=O)(O)O[C@@H]3C[C@H](n4cnc5c(=S)[nH]c(N)nc54)O[C@@H]3CO)O2)c(=S)[nH]1` [Compound 1]: in the test with HEK293, the “% max. toxicity @ 50 μM” value turned out to be 94% and the IC50 was 0.28 µM. In the test on Hep3B, the “% max. toxicity @ 50 μM2” value amounted to 92% and the half-maximal inhibitory concentration (IC50) came out at 0.68 µM. For the same compound, in the test with HepG2, the “% max. toxicity @ 50 μM3” value came out at 94% and the half-inhibitory concentration (IC50) was determined as 0.15 µM. Besides, in the test on NCI-H23, the “% max. toxicity @ 50 μM4” value was determined as 93% and the IC50 was 0.07 µM. Moreover, in the test on Panc-1, the “% max. toxicity @ 50 μM5” value was 95% and the IC50 is 0.18 µM.

As to `Nc1nc2c(ncn2[C@H]2C[C@@H](OP(O)(=S)OC[C@H]3O[C@@H](n4cc(F)c(=O)[nH]c4=O)C[C@H]3O)[C@@H](CO)O2)c(=S)[nH]1` (some centres unmarked) [Compound 11], in the test with HEK293, the “% max. toxicity @ 50 μM” value came to 86% and the IC50 turned out to be 0.63 µM. In the test with Hep3B, the “% max. toxicity @ 50 μM2” value turned out to be 62% and the IC50 was 1.12 µM. In addition, in the test on HepG2, the “% max. toxicity @ 50 μM3” value is given as 71% and the IC50 turned out to be 0.61 µM. Also, in the test with NCI-H23, the “% max. toxicity @ 50 μM4” value was determined as 79% and the IC50 was found to be 1.11 µM. In the test with Panc-1, the “% max. toxicity @ 50 μM5” value was found to be 80% and the IC50 came to 5.12 µM.

Turning to `Nc1nc2c(ncn2[C@H]2C[C@@H](O)[C@@H](COP(=O)(O)O[C@@H]3C[C@H](n4cc(F)c(=O)[nH]c4=O)O[C@@H]3CO)O2)c(=S)[nH]1` [Compound 6], in the test with HEK293, the “% max. toxicity @ 50 μM” value was found to be 93% and the 50% inhibitory concentration (IC50) was 0.01 µM. Further, in the test with Hep3B, the “% max. toxicity @ 50 μM2” value stood at 82% and the half-inhibitory concentration (IC50) came to 0.06 µM. Also, in the test on HepG2, the “% max. toxicity @ 50 μM3” value came to 89% and the concentration for half-maximal inhibition (IC50) was found to be 0.06 µM. In the test on NCI-H23, the “% max. toxicity @ 50 μM4” value turned out to be 92% and the IC50 turned out to be 0.02 µM. Also, in the test on Panc-1, the “% max. toxicity @ 50 μM5” value is reported as 88% and the IC50 was found to be 0.25 µM.
